According to US12043599B2, “Herbicidal compounds” (SYNGENTA PARTICIPATIONS AG, priority 2018, dated 2024):

Key:
Format in all cases: in vivo
Conditions in all cases: 250 g/h, evaluated after 13 days
Setaria faberi (SETFA) [1] = assay: Post-emergence herbicidal glasshouse test, percentage damage
Outline: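 Percentage damage was scored 13 days after treatment on a five-point scale (1=0-19% to 5=80-100%). Treatments were post-emergence sprays on 8-day-old wheat, barley and SETFA plants in a glasshouse (24/16 °C day/night, 14 h light, 65% humidity), using acetone/water 50:50 with 0.5% Tween 20 at the stated rates. Wheat additionally received cloquintocet-mexyl safener at 50 g/ha.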

Setaria faberi (SETFA) [2] = assay: Pre-emergence herbicidal glasshouse test, percentage damage
Outline: (§1)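 Herbicidal effect was scored 13 days after a 250 g/h spray, using bands of 0-19% (1) through 80-100% (5). Sowing preceded spraying by 1 day for pre-emergence and 8 days for post-emergence. The glasshouse ran at 24/16 °C with 14 h light.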

Avena fatua (AVEFA) [3] = assay: as above
Outline: as §1

[4] = system: Alopecurus myosuroides (ALOMY); assay: as above
Outline: as §1

Lolium perenne (LOLPE) [5] = assay: as above
Outline: as §1

[6] = system: Echinochloa crus-galli (ECHCG); assay: as above
Outline: as §1

Avena fatua (AVEFA) [7] = assay: Post-emergence herbicidal glasshouse test, percentage damage
Outline: as §1

[8] = system: Alopecurus myosuroides (ALOMY); assay: as above
Outline: as §1

Lolium perenne (LOLPE) [9] = assay: as above
Outline: as §1

[10] = system: Echinochloa crus-galli (ECHCG); assay: as above
Outline: as §1

Row | SMILES | SETFA POST percentage damage (five point scale) (Setaria faberi (SETFA) [1]) | SETFA PRE percentage damage (five point scale) (Setaria faberi (SETFA) [2]) | AVEFA PRE percentage damage (five point scale) (Avena fatua (AVEFA) [3]) | ALOMY PRE percentage damage (five point scale) [4] | LOLPE PRE percentage damage (five point scale) (Lolium perenne (LOLPE) [5]) | ECHCG PRE percentage damage (five point scale) [6] | AVEFA POST percentage damage (five point scale) (Avena fatua (AVEFA) [7]) | ALOMY POST percentage damage (five point scale) [8] | LOLPE POST percentage damage (five point scale) (Lolium perenne (LOLPE) [9]) | ECHCG POST percentage damage (five point scale) [10]
1 | CC#Cc1cc(C)c(C2C(=O)CC3(CCN(C(=O)COC(F)F)CC3)CC2=O)c(C)c1 [Compound A197, 3-[2-(difluoromethoxy)acetyl]-9-(2,6-dimethyl-4-prop-1-ynyl-phenyl)-3-azaspiro[5.5]undecane-8,10-dione] | 5 (5=80-100%) | 5 (5=80-100%) | 5 (5=80-100%) | 5 (5=80-100%) | 5 (5=80-100%) | 5 (5=80-100%) | 5 (5=80-100%) | 5 (5=80-100%) | 5 (5=80-100%) | 5 (5=80-100%)
2 | CC#Cc1cc(C)c(C2C(=O)CC3(CCN([S+]([O-])C(F)F)CC3)CC2=O)c(C)c1 (stereo not shown) [Compound A81] | 5 (5=80-100%) | 5 (5=80-100%) | 5 (5=80-100%) | 5 (5=80-100%) | 5 (5=80-100%) | 5 (5=80-100%) | 5 (5=80-100%) | 5 (5=80-100%) | 5 (5=80-100%) | 5 (5=80-100%)
3 | CC#Cc1cc(C)c(C2C(=O)CC3(CCN(c4ncccn4)CC3)CC2=O)c(C)c1 [Compound A37] | 5 (5=80-100%) | 5 (5=80-100%) | 4 (4=60-79%) | 5 (5=80-100%) | 5 (5=80-100%) | 5 (5=80-100%) | 5 (5=80-100%) | 5 (5=80-100%) | 5 (5=80-100%) | 5 (5=80-100%)
4 | CC#Cc1cc(C)c(C2C(=O)CC3(CCN(C(=O)[C@H]4COCCO4)CC3)CC2=O)c(C)c1 [Compound A173] | 5 (5=80-100%) | 5 (5=80-100%) | 5 (5=80-100%) | 5 (5=80-100%) | 5 (5=80-100%) | 5 (5=80-100%) | 5 (5=80-100%) | 5 (5=80-100%) | 5 (5=80-100%) | 5 (5=80-100%)
5 | CC#Cc1cc(C)c(C2C(=O)CC3(CCN(C(=O)[C@@H]4COCCO4)CC3)CC2=O)c(C)c1 [Compound A174] | 5 (5=80-100%) | 5 (5=80-100%) | 5 (5=80-100%) | 5 (5=80-100%) | 5 (5=80-100%) | 5 (5=80-100%) | 5 (5=80-100%) | 5 (5=80-100%) | 5 (5=80-100%) | 5 (5=80-100%)
6 | CC#Cc1cc(C)c(C2C(=O)CC3(CCN(C(=O)CCc4ccn(C)n4)CC3)CC2=O)c(C)c1 [Compound A183] | 5 (5=80-100%) | 5 (5=80-100%) | 4 (4=60-79%) | 4 (4=60-79%) | 5 (5=80-100%) | 5 (5=80-100%) | 5 (5=80-100%) | 5 (5=80-100%) | 5 (5=80-100%) | 5 (5=80-100%)
7 | CC#Cc1cc(C)c(C2C(=O)CC3(CCN(C(=O)c4cncc(OC)n4)CC3)CC2=O)c(C)c1 [Compound A180] | 5 (5=80-100%) | 5 (5=80-100%) | 5 (5=80-100%) | 5 (5=80-100%) | 5 (5=80-100%) | 5 (5=80-100%) | 5 (5=80-100%) | 5 (5=80-100%) | 5 (5=80-100%) | 5 (5=80-100%)
